Measurements reported in patent publication US8367677B2, “Non-glycosylated/non-glycosidic/non-peptidic small molecule PSGL-1 mimetics for the treatment of inflammatory disorders” (Revotar Biopharmaceuticals AG, priority 2004, dated 2013).

Assays:
[1] = molecular target: T1, human L-Selectin-IgG-chimera (Homo sapiens, UniProt P14151); test: Sialyl Lewis x Tyrosine Sulfate Assay (sLex TSA), L-selectin; type: binding; conditions: for inhibition at 100 µM / L-Selectin [% Inhib.]: compound at 100 μM; for inhibition at 100 µM: read-out: L-Selectin [% Inhib.]
T1 construct: fused on or other part: human IgG Fc part, a tag and dimerising handle that is captured by the goat anti-human Fc antibody on the plate
T1 sequence (P14151 39-318 limits assumed): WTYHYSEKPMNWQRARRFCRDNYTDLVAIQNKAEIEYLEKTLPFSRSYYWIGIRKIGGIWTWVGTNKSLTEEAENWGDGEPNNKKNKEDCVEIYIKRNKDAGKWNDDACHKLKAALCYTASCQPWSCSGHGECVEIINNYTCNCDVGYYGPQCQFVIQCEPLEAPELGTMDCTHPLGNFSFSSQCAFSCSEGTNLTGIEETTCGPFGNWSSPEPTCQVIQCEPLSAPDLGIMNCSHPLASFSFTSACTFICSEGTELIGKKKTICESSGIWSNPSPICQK
Description: (§1) Compounds of the present invention are assayed on a molecular level for their ability to inhibit the binding of P-, L-, or E-selectin chimeric molecules to sLe^x and tyrosinesulfate residues linked to a polymeric matrix as a PSGL-1 substitute.
(§2) Microtiter plates are coated overnight in carbonate buffer pH9.6 with goat anti human Fc mAB (10 μg/ml). After washing in assay buffer (25 mM 4-(2-hydroxyethyl)-1-piperazineethanesulfonic acid (HEPES), 150 mM NaCl, 1 mM CaCl2 pH7.4) and blocking (3% bovine serum albumin (BSA) in assay buffer) plates are incubated for 2 h at 37° C. with human P-Selectin-IgG-chimera (0.61 nM respectively 150 ng/mL) or human L-Selectin-IgG-chimera (0.61 nM respectively 89 ng/mL) or human E-Selectin-IgG-chimera (0.61 nM respectively 131 ng/mL). 5 μl of sLe^x-tyrosine sulfate polyacrylamide (1 mg/ml) carrying 15% sLe^x, 10% Tyrosine-sulfate and 5% biotin is complexed with 20 μl Streptavidin-Peroxidase solution (1 mg/ml) and 25 μl assay buffer without CaCl2. For use in the assay, the ligand complex is diluted 1:10000 in assay buffer and further diluted 1:1 with varying amounts of compounds in assay buffer incl. 2% DMSO. This mixture is added to the wells precoated with E- or P-selectin. After incubation for 2 h at 37° C., wells are washed for six times with in assay buffer incl. 0.005% Polyoxyethylenesorbitan monolaurate (TWEEN 20), developed for 10-15 min with 20 μl 3,3′,5,5′-tetramethylbenzidine (TMB)/H2O2 substrate solution and stopped with 20 μl […]. Bound sLe^x-Tyrosine sulfate ligand complex is determined by measuring optical density at 450 nm vs. 620 nm in a Fusion alpha-FP reader (sold from Packard Bioscience, Dreieich, Germany).

[2] = molecular target: T2, human P-Selectin-IgG-chimera (Homo sapiens, UniProt P16109); test: Sialyl Lewis x Tyrosine Sulfate Assay (sLex TSA), P-selectin; type: binding; conditions: for inhibition at 100 µM / P-Selectin [% Inhib.]: compound at 100 μM; for inhibition at 100 µM: read-out: P-Selectin [% Inhib.]
T2 sequence (P16109 42-771 limits assumed): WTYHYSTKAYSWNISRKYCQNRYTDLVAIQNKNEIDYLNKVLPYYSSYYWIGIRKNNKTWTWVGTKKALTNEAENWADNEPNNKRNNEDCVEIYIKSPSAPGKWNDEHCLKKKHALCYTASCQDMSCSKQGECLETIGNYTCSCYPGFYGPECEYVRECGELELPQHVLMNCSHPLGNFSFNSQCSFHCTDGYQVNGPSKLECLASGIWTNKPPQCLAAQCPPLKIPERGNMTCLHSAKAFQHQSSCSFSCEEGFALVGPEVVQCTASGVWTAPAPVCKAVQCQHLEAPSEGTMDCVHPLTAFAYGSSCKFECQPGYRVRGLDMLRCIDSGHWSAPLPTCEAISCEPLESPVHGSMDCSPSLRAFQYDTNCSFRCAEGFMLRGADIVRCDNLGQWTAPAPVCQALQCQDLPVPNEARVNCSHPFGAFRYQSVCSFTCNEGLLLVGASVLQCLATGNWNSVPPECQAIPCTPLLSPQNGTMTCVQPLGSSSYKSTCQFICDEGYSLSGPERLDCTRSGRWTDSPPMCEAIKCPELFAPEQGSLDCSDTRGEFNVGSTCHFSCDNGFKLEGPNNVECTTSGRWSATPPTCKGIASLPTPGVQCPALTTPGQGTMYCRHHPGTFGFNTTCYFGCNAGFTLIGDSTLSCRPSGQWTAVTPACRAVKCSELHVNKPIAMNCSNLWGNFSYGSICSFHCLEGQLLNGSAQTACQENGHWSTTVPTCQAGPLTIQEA
Description: as §1, §2

[3] = molecular target: T3, human E-Selectin-IgG-chimera (Homo sapiens, UniProt P16581); test: Sialyl Lewis x Tyrosine Sulfate Assay (sLex TSA), E-selectin; type: binding; conditions: for inhibition at 100 µM / E-Selectin [% Inhib.]: compound at 100 μM; for inhibition at 100 µM: read-out: E-Selectin [% Inhib.]
T3 construct: fused on or other part: human IgG Fc part, a tag and dimerising handle that is captured by the goat anti-human Fc antibody on the plate
T3 sequence (P16581 22-175 limits assumed): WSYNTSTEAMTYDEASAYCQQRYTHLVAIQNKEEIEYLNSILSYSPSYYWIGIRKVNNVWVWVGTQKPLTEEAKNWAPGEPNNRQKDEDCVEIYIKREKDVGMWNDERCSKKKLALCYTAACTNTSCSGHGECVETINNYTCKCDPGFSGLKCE
Description: as §1, §2

[4] = system: human E-selectin-IgG chimera; test: Flow chamber assay, cell adhesion and rolling under flow conditions, E-selectin; type: cell-based; conditions: 125 μM compound, flow shear 1 dyne/cm^2
Description: (§3) To assess the capability of compounds to inhibit cell binding under dynamic conditions resembling the flow in a blood vessel, flow chamber assays addressing/testing binding of HL-60 cells/various cell lines to P-selectin, L-selectin and E-selectin chimeric molecules are performed.
(§4) Cell attachment under flow conditions are determined using a parallel flow chamber system. A 35 mm polystyrene culture dish is coated for 1 hour at room temperature with coating buffer (50 mM tris-(hydroxymethyl)aminomethane buffer (Tris), 150 mM NaCl, 2 mM CaCl2; pH 7,4) containing human E- or P-selectin-IgG chimera at concentrations of 2.5 μg/ml or 10 μg/ml, respectively. After removal of the coating solution non specific binding sites are blocked for an additional hour with 1% BSA in coating buffer at room temperature. After washing with assay buffer (“Roswell Park Memorial Institute 1640” (RPMI 1640)+10 mM HEPES) the dish is fitted into a parallel plate laminar flow chamber (sold from Glycotech, Rockville, Md.) and mounted on an inverted phase-contrast microscope (sold from Olympus, Hamburg, Germany) equipped with a CCD camera (JVC) that is connected to a PC. Employing a peristaltic pump (sold from Ismatec, Wertheim-Mondfeld, Germany) the re-circulating system is equilibrated with assay buffer containing 125 μM compound or vehicle control (DMSO). Cells (1 million/ml) are added to the chamber and allowed to distribute for 2 minutes at a high flow rate. The flow rate is then decreased resulting in a calculated flow shear of 1 dyne/cm^2. Video sequences of 10 low power fields are digitally recorded after 5 minutes continuous flow. The percentage of inhibition is calculated from the mean number of cells per field that attached to the coated dish surface in the presence versus absence of compound […].

[5] = system: human P-selectin-IgG chimera; test: Flow chamber assay, cell adhesion and rolling under flow conditions, P-selectin; type: cell-based; conditions: 125 μM compound, flow shear 1 dyne/cm^2
Description: as §3, §4

[6] = Parallel Artificial Membrane Permeation Assay (PAMPA); type: in vitro ADME; conditions: 16 hours, room temperature; for [% flux] at pH 4.0: pH 4.0, 500 μM donor; for [% flux] at pH 7.4: pH 7.4, 500 μM donor
Description: The test compounds are dissolved at 10 mM in DMSO and diluted to 500 μM with PBS pH 7.4 or pH 4.0, respectively resulting in ‘donor solutions’. For use as an artificial membrane, a 1% solution of lecithin (w/v) in dodecane is prepared and sonicated. Then, 5 μl of the lecithin/dodecane mixture are carefully pipetted into each donor plate well. Immediately after the application of the artificial membrane, 150 μl of drug containing donor solutions are added to each well of the donor plate. Each well of the acceptor plate is filled with 300 μl buffer (PBS with 5% DMSO at pH 7.4 or pH 4.0, respectively) and the drug-filled donor plate is placed onto the acceptor plate, making sure the membrane is in contact with the buffer. After replacement of the lid, the assembled plates are transferred into a sealed box equipped with a moistured towel and incubated at room temperature for 16 hours. Then, the wells of the acceptor plate are analyzed with LC/MS.

Row | Structure (SMILES) | IC50 [1] [µM] | inhibition at 100 µM [1] [%] | IC50 [2] [µM] | inhibition at 100 µM [2] [%] | inhibition at 100 µM [3] [%] | E-Selectin [% Inhib.] of cell attachment [4] [%] | IC50 [3] [µM] | P-Selectin [% Inhib.] of cell attachment [5] [%] | [% flux] at pH 4.0 [6] [%] | [% flux] at pH 7.4 [6] [%] | L-Selectin [% Inhib.] [1] [%] | P-Selectin [% Inhib.] [2] [%] | E-Selectin [% Inhib.] [3] [%]
1 | O=C(O)Cc1ccc(-c2ccccc2NC(=O)Cc2ccc(O)c(O)c2O)s1 [Compound 41, (5-{2-[2-(2,3,4-Trihydroxyphenyl)-acetylamino]-phenyl}-thiophen-2-yl)acetic acid] | 14.6 | 81 | 7.6 | 92 | 46 | 26 |  |  |  |  |  |  | 
2 | O=C(O)Cc1ccc(-c2ccccc2NC(=O)c2cccc(-c3ccc(O)c(O)c3O)c2)s1 [Compound 48, (5-{2-[(2′,3′,4′-Trihydroxy-biphenyl-3-carbonyl)-amino]-phenyl}-thiophen-2-yl)-acetic acid] | 9.8 | 95 | 5.8 | 97 | 31 | 61 | 132 | 55 |  |  |  |  | 
3 | O=C(/C=C/c1ccc(O)c(O)c1O)Nc1ccc(C(=O)O)cc1 [Compound 97] | 6.2 | 98 | 3.5 | 97 | 51 |  | 285 | 47 | 0 | 16 |  |  | 
4 | O=C(/C=C/c1ccc(O)c(O)c1O)Nc1cccc(C(=O)O)c1 [Compound 99] | 24.9 | 99 | 14.4 | 99 | 71 | 28 |  | 96 |  |  |  |  | 
5 | Cc1oc(-c2ccc(NC(=O)Cc3cc(O)c(O)c(O)c3)cc2)cc1C(=O)O [Compound 101] |  |  |  |  |  |  |  | 99 |  |  | 95 | 93 | 50
6 | O=C(O)Cc1ccc(-c2ccccc2NC(=O)CCc2cc(O)c(O)c(O)c2)s1 [Compound 102] | 3.1 | 96 | 2.4 | 97 | 99 | 35 | 3.3 | 11 |  |  |  |  | 
7 | O=C(Cc1cc(O)c(O)c(O)c1)NCc1ccc(C(=O)O)cc1 [Compound 118] | 26.2 | 66 | 14.8 | 79 | 53 | 16 | 8.7 | 20 | 0 | 1 |  |  | 
8 | O=C(CCc1cc(O)c(O)c(O)c1)NCc1ccc(C(=O)O)cc1 [Compound 120] | 30.8 | 87 | 34.9 | 88 | 92 | 21 | 8.4 | 21 |  |  |  |  | 
9 | Cc1cccc(NC(=O)CCc2ccc(O)c(O)c2O)c1 [Compound 121] |  |  |  |  |  | 18 |  | 44 | 12 | 12 | 77 | 73 | 29
10 | Cc1cccc(NC(=O)Cc2ccc(O)c(O)c2O)c1 [Compound 122] |  |  |  |  |  | 27 |  | 22 | 6 | 0 | 87 | 81 | 70
11 | O=C(Cc1cc(O)c(O)c(O)c1)Nc1cccc(C(F)(F)F)c1 [Compound 123] |  |  |  |  |  | 51 |  |  | 27 | 0 |  |  | 
12 | O=C(Cc1ccc(O)c(O)c1O)Nc1cc(Cl)cc(Cl)c1 [Compound 124] |  |  |  |  |  | 28 |  | 23 | 100 | 0 |  |  | 
